The test is described as follows: Inhibition of ARTD10 (unknown origin)-induced cell death expressed in human HeLa cells after 10 days by methylene blue staining based colony formation assay.

The values below come from BindingDB's records for doi:10.1016/j.ejmech.2018.06.047 (University of Oulu, 2018).

Each structure is given as a SMILES string.

A word on the IC50: it is the point on the concentration scale where inhibition reaches its midpoint.

`NC(=O)c1ccc(OCc2ccccc2F)cc1` returned an IC50 of 2000 nM. In turn, `NC(=O)c1ccc(Oc2ccc(C=O)cc2)cc1` showed an IC50 of 1000 nM.
